From PubChem BioAssay (NCI)
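Results reflect a 48-hour exposure of cells in 96-well plates to compound at five concentrations. TGI: concentration producing complete growth inhibition.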

Key:
Assay in all cases: DTP human tumour cell line panel, 48 h
[1] = test system: UACC-62 melanoma
[2] = test system: HS 578T breast
[3] = test system: U251 CNS
[4] = test system: RPMI-8226 leukemia
[5] = test system: OVCAR-8 ovarian
[6] = test system: HOP-62 NSCLC
[7] = test system: EKVX NSCLC
[8] = test system: SW-620 colon
[9] = test system: NCI/ADR-RES ovarian
[10] = test system: ACHN renal
[11] = test system: SF-268 CNS
[12] = test system: IGROV1 ovarian
[13] = test system: MDA-MB-231 breast
[14] = test system: SF-539 CNS
[15] = test system: SK-MEL-5 melanoma
[16] = test system: DU-145 prostate
[17] = test system: NCI-H522 lung
[18] = test system: CAKI-1 renal
[19] = test system: HT29 colon
[20] = test system: UO-31 renal
[21] = test system: RXF 393 renal
[22] = test system: BT-549 breast
[23] = test system: NCI-H226 lung
[24] = test system: SK-OV-3 ovarian
[25] = test system: SK-MEL-28 melanoma
[26] = test system: SN12C renal
[27] = test system: HOP-92 NSCLC
[28] = test system: MDA-N
[29] = test system: M14 melanoma
[30] = test system: OVCAR-5 ovarian
[31] = test system: 786-0 renal
[32] = test system: MCF7 breast
[33] = test system: MDA-MB-435
[34] = test system: MALME-3M melanoma
[35] = test system: HCT-116 colon
[36] = test system: T-47D breast
[37] = test system: SNB-19 CNS
[38] = test system: TK-10 renal
[39] = test system: LOX IMVI melanoma
[40] = test system: COLO 205 colon
[41] = test system: KM12 colon
[42] = test system: OVCAR-4 ovarian
[43] = test system: SNB-75 CNS
[44] = test system: SR leukemia
[45] = test system: A549 NSCLC
[46] = test system: SF-295 CNS
[47] = test system: SK-MEL-2 melanoma
[48] = test system: NCI-H23 lung
[49] = test system: UACC-257 melanoma
[50] = test system: OVCAR-3 ovarian
[51] = test system: MOLT-4 leukemia
[52] = test system: CCRF-CEM leukemia
[53] = test system: HCC-2998 colon
[54] = test system: HL-60(TB) leukemia
[55] = test system: K-562 leukemia
[56] = test system: HCT-15 colon
[57] = test system: NCI-H460 lung
[58] = test system: A498 renal
[59] = test system: PC-3 prostate

## CCOC(=O)Oc1ccc(C(CNC(C)C)OC(=O)OCC)cc1OC(=O)OCC (configuration not stated)
[1]
  TGI: > 100 µM
[2]
  TGI: > 100 µM
[3]
  TGI: > 100 µM
[4]
  TGI: > 100 µM
[5]
  TGI: > 100 µM
[6]
  TGI: > 100 µM
[7]
  TGI: > 100 µM
[8]
  TGI: > 100 µM
[9]
  TGI: > 100 µM
[10]
  TGI: > 100 µM
[11]
  TGI: > 100 µM
[12]
  TGI: > 100 µM
[13]
  TGI: > 100 µM
[14]
  TGI: > 100 µM
[15]
  TGI: > 100 µM
[16]
  TGI: > 100 µM
[17]
  TGI: > 100 µM
[18]
  TGI: > 100 µM
[19]
  TGI: > 100 µM
[20]
  TGI: > 100 µM
[21]
  TGI: > 100 µM
[22]
  TGI: > 100 µM
[23]
  TGI: > 100 µM
[24]
  TGI: > 100 µM
[25]
  TGI: > 100 µM
[26]
  TGI: > 100 µM
[27]
  TGI: > 100 µM
[28]
  TGI: > 100 µM
[29]
  TGI: > 100 µM
[30]
  TGI: > 100 µM
[31]
  TGI: > 100 µM
[32]
  TGI: > 100 µM
[33]
  TGI: > 100 µM
[34]
  TGI: > 100 µM
[35]
  TGI: > 100 µM
[36]
  TGI: > 100 µM
[37]
  TGI: > 100 µM
[38]
  TGI: > 100 µM
[39]
  TGI: > 100 µM
[40]
  TGI: > 100 µM
[41]
  TGI: > 100 µM
[42]
  TGI: > 100 µM
[43]
  TGI: > 100 µM
[44]
  TGI: > 100 µM
[45]
  TGI: > 100 µM
[46]
  TGI: > 100 µM
[47]
  TGI: > 100 µM
[48]
  TGI: > 100 µM
[49]
  TGI: > 100 µM
[50]
  TGI: > 100 µM
[51]
  TGI: > 100 µM
[52]
  TGI: > 100 µM
[53]
  TGI: > 100 µM
[54]
  TGI: 98.5 µM
[55]
  TGI: > 100 µM
[56]
  TGI: > 100 µM
[57]
  TGI: > 100 µM
[58]
  TGI: > 100 µM
[59]
  TGI: > 100 µM

## COc1ccc2nc3n[nH]c(N)c3nc2c1
[1]
  TGI: 19.8 µM
[2]
  TGI: 23.8 µM
[3]
  TGI: > 56.3 µM
[4]
  TGI: 19 µM
[5]
  TGI: 32.5 µM
[6]
  TGI: > 76.5 µM
[7]
  TGI: 45.6 µM
[8]
  TGI: 45.9 µM
[9]
  TGI: 33.8 µM
[10]
  TGI: > 23.7 µM
[11]
  TGI: 23.8 µM
[12]
  TGI: 17.1 µM
[13]
  TGI: 64.4 µM
[14]
  TGI: 12 µM
[15]
  TGI: > 29.1 µM
[16]
  TGI: > 49.2 µM
[17]
  TGI: 27.3 µM
[18]
  TGI: > 90.6 µM
[19]
  TGI: 36.9 µM
[20]
  TGI: 55 µM
[21]
  TGI: 5.91 µM
[22]
  TGI: 62.9 µM
[23]
  TGI: 24.8 µM
[24]
  TGI: > 64.9 µM
[25]
  TGI: 42.2 µM
[26]
  TGI: > 69.1 µM
[27]
  TGI: 48.6 µM
[28]
  TGI: 44.4 µM
[29]
  TGI: 27.6 µM
[30]
  TGI: > 87.2 µM
[31]
  TGI: > 65.9 µM
[32]
  TGI: > 26.7 µM
[33]
  TGI: 72.3 µM
[34]
  TGI: 69.6 µM
[35]
  TGI: > 32.8 µM
[36]
  TGI: 46.5 µM
[37]
  TGI: > 100 µM
[38]
  TGI: > 75.7 µM
[39]
  TGI: 20.4 µM
[40]
  TGI: 18.9 µM
[41]
  TGI: > 93 µM
[42]
  TGI: > 87.3 µM
[43]
  TGI: 21.7 µM
[44]
  TGI: > 78 µM
[45]
  TGI: > 26.5 µM
[46]
  TGI: > 76.7 µM
[47]
  TGI: 17.5 µM
[48]
  TGI: 15.5 µM
[49]
  TGI: 90.4 µM
[50]
  TGI: 38.3 µM
[51]
  TGI: > 100 µM
[52]
  TGI: > 25.7 µM
[53]
  TGI: > 74 µM
[54]
  TGI: 4.48 µM
[55]
  TGI: > 100 µM
[56]
  TGI: > 93.7 µM
[57]
  TGI: > 84.2 µM
[58]
  TGI: > 62.3 µM
[59]
  TGI: 36.9 µM

## CCCCCOc1ccc(Nc2c(O)c3c(c(O)c2Cl)C(=O)C=CC3=O)cc1
[1]
  TGI: > 10 µM
[2]
  TGI: 7.39 µM
[3]
  TGI: > 10 µM
[4]
  TGI: 7.76 µM
[5]
  TGI: > 5.87 µM
[6]
  TGI: > 10 µM
[7]
  TGI: > 10 µM
[8]
  TGI: > 10 µM
[9]
  TGI: > 10 µM
[10]
  TGI: > 10 µM
[11]
  TGI: > 10 µM
[12]
  TGI: > 10 µM
[13]
  TGI: > 8.25 µM
[14]
  TGI: > 10 µM
[15]
  TGI: > 10 µM
[16]
  TGI: > 10 µM
[17]
  TGI: 5.39 µM
[18]
  TGI: > 10 µM
[19]
  TGI: > 10 µM
[20]
  TGI: > 9.67 µM
[21]
  TGI: > 10 µM
[22]
  TGI: > 6.94 µM
[23]
  TGI: > 10 µM
[24]
  TGI: > 10 µM
[25]
  TGI: 8.66 µM
[26]
  TGI: > 10 µM
[27]
  TGI: > 9.51 µM
[28]
  TGI: > 9.3 µM
[29]
  TGI: > 10 µM
[30]
  TGI: > 10 µM
[31]
  TGI: > 10 µM
[32]
  TGI: > 10 µM
[33]
  TGI: 5.53 µM
[34]
  TGI: > 6.38 µM
[35]
  TGI: > 10 µM
[36]
  TGI: > 9.64 µM
[37]
  TGI: > 10 µM
[38]
  TGI: > 10 µM
[39]
  TGI: 3.72 µM
[40]
  TGI: > 8.02 µM
[41]
  TGI: > 10 µM
[42]
  TGI: 9.97 µM
[43]
  TGI: > 10 µM
[44]
  TGI: 6.99 µM
[45]
  TGI: > 10 µM
[46]
  TGI: > 10 µM
[47]
  TGI: > 10 µM
[48]
  TGI: > 6.51 µM
[49]
  TGI: > 10 µM
[50]
  TGI: > 6.54 µM
[51]
  TGI: > 10 µM
[52]
  TGI: > 10 µM
[53]
  TGI: > 7.84 µM
[54]
  TGI: 3.79 µM
[55]
  TGI: > 9.65 µM
[56]
  TGI: 3.93 µM
[57]
  TGI: > 10 µM
[58]
  TGI: > 10 µM
[59]
  TGI: > 10 µM
